According to article PMC9866728, “Dosing Methods to Enable Cell-Based In Vitro Testing of Complex Substances: A Case Study with a PAH Mixture” (Toxics, 2022):
Like-named read-outs stand apart in the source and are kept apart here.

How the values were obtained:
[1] = Loading kinetics of silicone micro-O-rings from methanol PAH solution (GC-MS/MS); type: physicochemical; conditions: for K Value: loading rate constant, one-phase association (h^-1); for K Value / Plateau Value / Y0: 10 µg/mL PAH mix in methanol; for Plateau Value: one-phase association fit of nominal Csilicone (µg/mL per Eq 1); for Y0: one-phase association fit of nominal Csilicone, 0-24 h; for Half-time Value / Span Value / Tau Value: one-phase association fit, micro-O-ring absorption
[2] = Recovery over time from exposure to cell culture media without cells (GC-MS/MS); type: physicochemical
[3] = O-ring loading rate constant, larger O-rings; ref Smith et al. 2010 [24]; cited from earlier work
[4] = Smith et al. O-Rings; ref Smith et al. 2010 [24]; cited from earlier work
[5] = Table S1; ref PubChem; cited from earlier work
[6] = MAF (400 ng/mL each PAH), one phase decay fit of nominal recovery
[7] = MAF (400 ng/mL each PAH), one phase decay fit of nominal recovery (text: ng/mL)
[8] = O-Rings (loaded in 10 µg/mL PAH solution), one phase association fit of nominal recovery
[9] = O-Rings, one phase association fit
[10] = O-Rings, one phase association fit (desorption into media)
[11] = Solvent Extract (DMSO, 15 ng/mL each PAH), one phase decay fit of nominal recovery
[12] = Solvent Extract (DMSO, 15 ng/mL each PAH), one phase decay fit of nominal recovery (text: ng/mL)
[13] = Solvent Extract, one phase decay fit

| Structure (SMILES) | K Value [1] | Plateau Value [1] | Y0 [1] | Half-time Value [1] | Span Value [1] | Tau Value [1] | Y0 [2, 6] | Plateau [2, 7] | K ([2]; MAF, one phase decay fit) | Span ([2]; MAF, one phase decay fit) | Tau ([2]; MAF, one phase decay fit) | Plateau [2, 8] | Y0 [2, 8] | Half-time [2, 9] | Span [2, 9] | Tau [2, 9] | K [2, 10] | Y0 [2, 11] | Plateau [2, 12] | K [2, 13] | further results |
| --- | --- | --- | --- | --- | --- | --- | --- | --- | --- | --- | --- | --- | --- | --- | --- | --- | --- | --- | --- | --- | --- |
| c1ccc2cc3ccccc3cc2c1 [Anthracene] | 27.2512 | 0.255 | 0 | 0.02544 | 0.255 | 0.0367 | 398.5 | 49.04 | 0.9206 | 349.4 | 1.086 | 0.3725 | -0.1844 | 0.1723 | 0.5569 | 0.2486 | 4.022 | 14.66 | 2.703 | 0.5624 | Span [2, 13]: 11.96; Tau [2, 13]: 1.778; Smith et al. 2010 K Value [3]: 1.82; K [4]: 2.3; LogKow (PubChem) [5]: 4.45 |
| c1ccc2c(c1)cc1ccc3cccc4ccc2c1c34 [Benzo[a]pyrene] | 33.8629 | 0.1047 | 0 | 0.02047 | 0.1047 | 0.02953 | 391.4 | 203.9 | 0.5026 | 187.5 | 1.989 | 1.337 | 0.02292 | 1.658 | 1.314 | 2.392 | 0.418 | 15.28 | 6.176 | 0.1275 | Span [2, 13]: 9.105; Tau [2, 13]: 7.845; Smith et al. 2010 K Value [3]: 1.32; K [4]: 0.57; LogKow (PubChem) [5]: 6.13 |
| c1ccc2c(c1)-c1cccc3cccc-2c13 [Fluoranthene] | 23.4013 | 0.3327 | 0 | 0.02962 | 0.3327 | 0.04273 | 391.9 | 86.09 | 0.2998 | 305.9 | 3.336 | 0.9705 | -0.1202 | 0.594 | 1.091 | 0.857 | 1.167 | 14.59 | 2.835 | 0.372 | Span [2, 13]: 11.75; Tau [2, 13]: 2.688; Smith et al. 2010 K Value [3]: 1.41; K [4]: 0.93; LogKow (PubChem) [5]: 5.16 |
